{
  "source": "paper PMC8058733",
  "about": "“A pain killer without analgesic tolerance designed by co-targeting PSD-95-nNOS interaction and α2-containning GABAARs” (Theranostics, 2021)",
  "key": {"neuropathic pain": {"test_system": "neuropathic pain", "parameters": "method as in PMID 32632774", "conditions": "treatment of neuropathic pain, chronic use; cited from earlier work"}, "spatial memory": {"test_system": "spatial memory", "experiment": "Morris water maze task", "type": "in vivo", "conditions": "rats; ZL006-05 90 mg/kg/d, i.g.; MK801 0.25 mg/kg/d, i.v.; 6 days", "protocol": "The Morris water maze task was used to exam spatial cognitive performance of rats. A circular swimming pool (Jiliang Neuroscience Inc.) measuring 180 cm in diameter and 48 cm in height was filled with water to a depth of 26 cm at 24 ± 2 °C. Four starting points around the edge of the pool were designated as N, E, S, and W, which divided the pool into four quadrants. A platform, 10 cm in diameter, was located in a constant position in the middle of one quadrant. To render it invisible to the rats, platform was submerged 2.0 cm below the surface of the water. The task for the rats was to escape from the water by locating the hidden platform. Two days before training, the animals were habituated to swimming for 60 s in the pool without a platform. In training session, rats were trained to escape from the water by locating the platform which was above the water with a red flag on it. Then, one block of four trails was given for 6 consecutive days, and on each day, two groups of rats were administrated with MK801 (0.25 mg/kg, i.v.) or vehicle (6 mL/kg, i.v.) 30 minutes before the first trail. Meanwhile, another two groups of rats were treated with ZL006-05 (90 mg/kg, i.g.) or vehicle (6 mL/kg, i.g.) 1 hour before the first trail. […] During retention, the number of crossings of the platform location and the time spent in the target quadrant were measured."}, "[1]": {"test_system": "SNL-induced mechanical hyperalgesia", "experiment": "SNL-induced mechanical hyperalgesia, paw withdrawal threshold", "type": "in vivo, rat", "conditions": "SNL rats, 60 mg/kg/d, i.g., 11 d", "protocol": "(§1) Neuropathic pain was induced by segmental spinal nerve ligation (SNL). Animals were anesthetized with isoflurane. After the loss of righting reflex, the animal was fixed in the prone position. The SNL model was prepared as described previously: a median skin incision with about 3-5 cm length in L4-S2 level of the mouse back was made, the muscles next to the vertebrae till the sixth lumbar protruding were separated, the L5/L6 joint protruding on the right side was exposed and excised, and L6 processus transversus was partially split so that the L4-L6 spinal nerves on the right side were exposed. L5 nerve was gently isolated and tightly ligated with 5-0 silk thread. The wound was closed with 4-0 silk thread suture and covered with iodine solution. After nerve ligation, animals with signs of paw clonus or autotomy were excluded from further experiments.\nOsmotic minipumps (models 1004 for mouse and 2ML4 for rat; Alzet) and intrathecal cannulas (0.61 mm outer diameter and 0.28 mm inner diameter for mouse, 0.99 mm outer diameter and 0.58 mm inner diameter for rat) were filled with a solution of PBS. Cannulas were inserted into the subarachnoid space through the space between the L5 and L6 vertebrae and the tip of the catheter was implanted at the L5 spinal segmental level.\nFor rats, the threshold for 50% paw withdrawal (50% PWT) response to mechanical stimulus was assessed through a dynamic plantar apparatus (Ugo Basile, Italy). The 50% PWT refers to that the probability of paw withdrawal response to repeated mechanical stimulus is 50%. Rats were placed individually in a plastic cage (17 × 15 × 15 cm) with a wire mesh bottom which allowed full access to the paws. Behavioral accommodation was allowed for 15-20 min until cage exploration and major grooming activities ceased. A maximal cut-off of 50g/50s was set to prevent tissue damage. To record the PWT in response to mechanical stimulus, each rat was measured five times with a 5-min interval, and the mean value was recorded after excluding maximal and minimum values. The experimental procedures were performed in a double-blind manner."}, "α2β3γ2 GABAARs": {"target": "T1, α2β3γ2 GABAARs (Homo sapiens, UniProt P18507+P28472+P47869)", "T1 construct": "Shanghai Genechem Co.,Ltd (γ2 plasmid); host or cells: HEK293", "T1 sequence (P47869 29-451)": "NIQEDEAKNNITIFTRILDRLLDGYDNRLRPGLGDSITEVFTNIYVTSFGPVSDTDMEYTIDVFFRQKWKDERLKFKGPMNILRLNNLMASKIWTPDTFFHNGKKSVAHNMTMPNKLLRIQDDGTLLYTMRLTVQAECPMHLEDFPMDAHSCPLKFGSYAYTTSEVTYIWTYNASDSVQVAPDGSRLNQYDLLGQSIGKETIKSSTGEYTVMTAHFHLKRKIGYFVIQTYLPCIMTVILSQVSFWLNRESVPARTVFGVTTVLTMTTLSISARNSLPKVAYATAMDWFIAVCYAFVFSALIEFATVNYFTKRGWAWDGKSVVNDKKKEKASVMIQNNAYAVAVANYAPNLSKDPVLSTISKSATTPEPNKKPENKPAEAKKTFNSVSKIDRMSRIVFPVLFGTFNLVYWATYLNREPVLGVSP", "T1 sequence (P28472 26-473)": "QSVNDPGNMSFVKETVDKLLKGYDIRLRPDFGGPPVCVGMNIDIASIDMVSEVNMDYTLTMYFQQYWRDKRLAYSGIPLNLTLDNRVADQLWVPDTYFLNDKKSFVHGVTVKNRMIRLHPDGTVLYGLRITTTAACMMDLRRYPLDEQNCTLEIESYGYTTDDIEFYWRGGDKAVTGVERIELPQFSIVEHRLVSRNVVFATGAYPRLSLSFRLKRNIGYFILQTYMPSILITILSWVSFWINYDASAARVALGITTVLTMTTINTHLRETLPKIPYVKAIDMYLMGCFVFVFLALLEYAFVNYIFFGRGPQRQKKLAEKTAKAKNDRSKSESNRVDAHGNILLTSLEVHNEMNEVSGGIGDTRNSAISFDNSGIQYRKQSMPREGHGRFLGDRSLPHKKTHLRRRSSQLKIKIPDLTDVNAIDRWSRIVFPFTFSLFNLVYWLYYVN", "T1 sequence (P18507 40-475)": "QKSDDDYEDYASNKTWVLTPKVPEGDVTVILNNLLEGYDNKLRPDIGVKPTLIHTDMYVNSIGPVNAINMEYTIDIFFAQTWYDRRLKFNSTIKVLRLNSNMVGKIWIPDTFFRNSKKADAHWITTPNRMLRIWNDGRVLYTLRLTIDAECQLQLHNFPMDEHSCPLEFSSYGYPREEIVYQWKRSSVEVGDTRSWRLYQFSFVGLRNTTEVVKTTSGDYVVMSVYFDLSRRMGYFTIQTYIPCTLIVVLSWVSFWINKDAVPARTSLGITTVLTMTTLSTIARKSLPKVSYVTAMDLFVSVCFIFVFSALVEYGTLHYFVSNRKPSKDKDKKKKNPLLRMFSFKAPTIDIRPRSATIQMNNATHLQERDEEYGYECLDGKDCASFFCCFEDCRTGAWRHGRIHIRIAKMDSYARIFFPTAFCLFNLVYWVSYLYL", "experiment": "Potentiation of GABA-evoked currents, whole-cell patch-clamp in HEK293 cells transiently expressing recombinant GABAARs", "type": "cell-based", "protocol": "(§2) The affinities of drugs for α1, α2, α3 and α5 subunits were studied in the HEK293 cells (from FuHeng Biology, Shanghai, China) transiently expressing recombinant GABAARs (α1β2γ2, α2β3γ2, α3β3γ2 and α5β2γ2) as described previously. Briefly, the HEK293 cells were cultured in MEM medium supplemented with 10% FBS (fetal bovine serum, Gibico), 1% L-glutamine (Gibco) and 1% mycillin (Gibco). Before transfection, the cells were subcultured onto a 3.5cm dish at the ratio of 1:2. Then, the plasmids of α1/α2/α3/α5 (Origene), β2/β3 (Origene) and γ2 (Shanghai Genechem Co.,Ltd ) (5μg total DNA, ratio 1:1:2) were transfected using Fugene®HD transfection reagent (Promega). The γ2 subunit contained GFP from IRES (internal ribosomal entry site) and was used as a marker of the successful transfection. Cells were used for electrophysiology recording 18-36 hours after transfection.\n(§3) Electrophysiology recordings from HEK293 cells were performed as described previously. Briefly, whole-cell patch-clamp recordings of GABA-evoked currents were made at 30 °C with the holding potential of -60 mV. The internal solution (solution in recording electrodes) contained (in mM): 120 CsCl, 10 EGTA, 10 HEPES, 4 MgCl2, 0.5 GTP, 2 ATP and pH was adjusted to 7.4 with CsOH and the external solution contained (in mM): 150 NaCl, 10 KCl, 2 CaCl2, 1 MgCl, 10 HEPES, 10 Glucose and pH was adjusted to 7.4 with NaOH. ACSF was bubbled continuously with carbogen (95%O2 and 5%CO2). For the recording of GABA-evoked currents, the slides were transferred to a recording chamber, which was perfused with ACSF at a rate of 4 ml/min. The cells were viewed under upright microscopy (Olympus), and GFP-positive cells were selected to record the currents. The interval time between each different dose of GABA was controlled, 3 to 5 minutes to avoid the desensitization of GABAARs."}, "PSD-95-nNOS complex": {"target": "T2, PSD-95-nNOS complex (Rattus norvegicus, UniProt P29476)", "T2 construct": "dorsal spinal cord tissues (L4 and L5) were lysed in 400 μl RIPA; from tissue; host or cells: rat dorsal spinal cord (L4 and L5), SNL model", "T2 sequence (P29476 whole entry, one chain of several)": "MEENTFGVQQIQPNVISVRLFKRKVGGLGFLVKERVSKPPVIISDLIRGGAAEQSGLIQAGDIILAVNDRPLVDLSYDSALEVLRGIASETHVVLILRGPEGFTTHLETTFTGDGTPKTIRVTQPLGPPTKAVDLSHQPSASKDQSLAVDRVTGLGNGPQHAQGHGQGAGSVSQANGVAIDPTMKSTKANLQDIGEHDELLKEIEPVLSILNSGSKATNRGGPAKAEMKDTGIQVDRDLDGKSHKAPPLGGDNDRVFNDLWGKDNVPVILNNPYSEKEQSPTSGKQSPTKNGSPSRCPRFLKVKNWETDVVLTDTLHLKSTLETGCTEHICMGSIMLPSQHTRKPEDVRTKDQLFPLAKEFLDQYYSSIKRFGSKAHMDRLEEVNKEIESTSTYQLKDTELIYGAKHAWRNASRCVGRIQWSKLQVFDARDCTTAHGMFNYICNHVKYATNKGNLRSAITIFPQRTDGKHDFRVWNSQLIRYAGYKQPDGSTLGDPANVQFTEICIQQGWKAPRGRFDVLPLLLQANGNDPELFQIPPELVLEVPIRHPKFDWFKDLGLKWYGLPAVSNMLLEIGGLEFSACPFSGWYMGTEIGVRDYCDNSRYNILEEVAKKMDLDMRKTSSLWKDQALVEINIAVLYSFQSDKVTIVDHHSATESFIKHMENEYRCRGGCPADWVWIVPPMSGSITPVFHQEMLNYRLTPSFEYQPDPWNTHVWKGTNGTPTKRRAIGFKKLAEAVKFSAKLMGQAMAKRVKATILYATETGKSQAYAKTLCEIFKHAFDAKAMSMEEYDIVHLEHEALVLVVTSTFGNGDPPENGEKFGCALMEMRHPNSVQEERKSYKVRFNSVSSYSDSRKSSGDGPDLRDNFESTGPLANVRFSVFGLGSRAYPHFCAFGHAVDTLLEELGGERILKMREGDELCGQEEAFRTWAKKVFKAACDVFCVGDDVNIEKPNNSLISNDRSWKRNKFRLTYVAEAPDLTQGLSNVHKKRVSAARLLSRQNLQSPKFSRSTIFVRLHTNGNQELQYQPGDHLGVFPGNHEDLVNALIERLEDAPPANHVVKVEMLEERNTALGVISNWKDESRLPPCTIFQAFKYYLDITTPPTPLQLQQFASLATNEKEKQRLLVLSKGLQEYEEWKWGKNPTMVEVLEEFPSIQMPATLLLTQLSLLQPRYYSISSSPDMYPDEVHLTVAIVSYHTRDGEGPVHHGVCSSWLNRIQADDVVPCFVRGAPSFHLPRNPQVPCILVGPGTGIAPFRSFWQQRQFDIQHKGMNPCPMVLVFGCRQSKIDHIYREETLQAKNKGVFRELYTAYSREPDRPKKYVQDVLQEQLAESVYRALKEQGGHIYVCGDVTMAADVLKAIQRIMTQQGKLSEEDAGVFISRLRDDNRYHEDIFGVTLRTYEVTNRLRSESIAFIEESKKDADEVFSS", "experiment": "Co-IP of PSD-95-nNOS complex levels in the spinal dorsal horn after SNL", "type": "in vivo", "conditions": "SNL rats, 60 mg/kg/d, i.g., 3 d"}, "locomotor activity": {"test_system": "locomotor activity", "experiment": "Open field test, locomotor activity", "type": "in vivo", "conditions": "mice, 1 h after injection, ZL006-05 60 mg/kg, i.v., diazepam 0.5 mg/kg", "protocol": "The locomotor activity was assessed by the open field test as described previously. The apparatus consisted of a large area composed of plastic, surrounded by walls that were 100 cm high. The floor was 50 × 50 cm for mice; the overall illumination was 25 lux. Each animal was gently placed in the center of the open field, and its behavior was videotaped. The distance the animals travelled was measured in a 5-min session using ANY-maze (Stoelting Co., IL, USA). After each trial, the plate was cleaned with 70% EtOH. No stressor was applied to the animals for at least 12 h before the test."}, "α1β2γ2 GABAARs": {"target": "T3, α1β2γ2 GABAARs (Homo sapiens, UniProt P14867+P18507+P47870)", "T3 construct": "Shanghai Genechem Co.,Ltd (γ2 plasmid); host or cells: HEK293", "T3 sequence (P14867 28-456)": "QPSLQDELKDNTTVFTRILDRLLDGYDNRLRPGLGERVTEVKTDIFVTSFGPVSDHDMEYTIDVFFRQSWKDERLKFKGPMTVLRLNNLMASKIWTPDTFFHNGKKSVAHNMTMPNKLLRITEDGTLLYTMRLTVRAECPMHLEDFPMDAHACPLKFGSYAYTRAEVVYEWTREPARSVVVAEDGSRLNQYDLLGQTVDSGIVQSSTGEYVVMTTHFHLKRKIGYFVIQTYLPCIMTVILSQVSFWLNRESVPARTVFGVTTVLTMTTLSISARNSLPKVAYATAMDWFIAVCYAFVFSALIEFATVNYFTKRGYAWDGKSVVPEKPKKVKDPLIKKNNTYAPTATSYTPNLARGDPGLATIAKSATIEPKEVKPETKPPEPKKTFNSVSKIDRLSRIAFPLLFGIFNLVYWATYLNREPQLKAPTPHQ", "T3 sequence (P47870 25-512 limits assumed)": "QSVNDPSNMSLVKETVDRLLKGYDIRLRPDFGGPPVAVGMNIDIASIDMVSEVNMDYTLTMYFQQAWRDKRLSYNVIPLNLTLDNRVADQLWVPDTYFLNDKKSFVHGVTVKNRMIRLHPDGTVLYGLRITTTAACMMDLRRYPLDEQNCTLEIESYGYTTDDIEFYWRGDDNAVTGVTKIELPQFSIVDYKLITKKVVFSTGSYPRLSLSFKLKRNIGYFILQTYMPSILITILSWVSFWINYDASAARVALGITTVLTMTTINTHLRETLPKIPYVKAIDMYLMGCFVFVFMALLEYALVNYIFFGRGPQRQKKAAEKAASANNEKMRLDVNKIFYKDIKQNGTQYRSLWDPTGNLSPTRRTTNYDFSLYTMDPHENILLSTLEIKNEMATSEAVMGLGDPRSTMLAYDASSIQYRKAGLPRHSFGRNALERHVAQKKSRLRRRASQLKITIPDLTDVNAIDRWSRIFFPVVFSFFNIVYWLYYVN", "T3 sequence (P18507 40-475)": "as the sequence (P18507 40-475) above", "experiment": "Potentiation of GABA-evoked currents, whole-cell patch-clamp in HEK293 cells transiently expressing recombinant GABAARs", "type": "cell-based", "conditions": "α1β2γ2, n = 8", "protocol": "as §2, §3"}, "α3β3γ2 GABAARs": {"target": "T4, α3β3γ2 GABAARs (Homo sapiens, UniProt P18507+P28472+P34903)", "T4 construct": "Shanghai Genechem Co.,Ltd (γ2 plasmid); host or cells: HEK293", "T4 sequence (P34903 29-492)": "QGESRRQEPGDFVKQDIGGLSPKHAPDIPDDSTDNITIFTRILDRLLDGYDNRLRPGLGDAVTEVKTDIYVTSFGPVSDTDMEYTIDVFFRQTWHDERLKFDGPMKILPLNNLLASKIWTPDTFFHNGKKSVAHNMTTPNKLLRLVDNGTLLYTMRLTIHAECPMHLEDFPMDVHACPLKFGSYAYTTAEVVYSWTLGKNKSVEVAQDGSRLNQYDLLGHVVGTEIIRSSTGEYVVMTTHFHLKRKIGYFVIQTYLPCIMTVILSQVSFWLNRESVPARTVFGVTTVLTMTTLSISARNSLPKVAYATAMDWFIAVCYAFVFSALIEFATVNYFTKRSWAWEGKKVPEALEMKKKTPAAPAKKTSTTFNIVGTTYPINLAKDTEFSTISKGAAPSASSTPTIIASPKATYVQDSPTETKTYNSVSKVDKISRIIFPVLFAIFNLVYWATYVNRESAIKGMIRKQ", "T4 sequence (P28472 26-473)": "as the sequence (P28472 26-473) above", "T4 sequence (P18507 40-475)": "as the sequence (P18507 40-475) above", "experiment": "Potentiation of GABA-evoked currents, whole-cell patch-clamp in HEK293 cells transiently expressing recombinant GABAARs", "type": "cell-based", "conditions": "α3β3γ2, n = 8", "protocol": "as §2, §3"}, "motor coordination": {"test_system": "motor coordination", "experiment": "Rotarod test, motor coordination", "type": "in vivo", "conditions": "rats, 30 min after injection, ZL006-05 60 mg/kg, i.v., diazepam 0.5 mg/kg"}, "[2]": {"test_system": "SNL-induced mechanical hyperalgesia", "experiment": "SNL-induced mechanical hyperalgesia, von Frey", "type": "in vivo, mice", "conditions": "SNL mice, ZL006-05 60 mg/kg/d, i.g., × 28 d; pregabalin 30 mg/kg/d", "protocol": "as §1\nFor mice, the threshold for 50% PWT response to mechanical stimulus was quantified by assessing the paw withdrawal threshold using von Frey filaments (Touch-Test TM Sensory Evaluator, North coast Medical, Inc.). Mice were placed individually in a plastic cage (4.5 × 5 × 11 cm) with a wire mesh bottom which allowed full access to the paws. Behavioral accommodation was allowed for 20-30 min until cage exploration and major grooming activities ceased. Mechanical threshold was measured by applying a von Frey filament to the ventral surface of the right hind paw until a positive sign of pain behavior was elicited. The paradigm for assessing the threshold was as follows. Von Frey filaments with logarithmically incremental stiffness (0.02-2 g) were applied serially to the paw by the up-down method. The filaments were presented, in ascending order of strength, perpendicular to the plantar surface with sufficient force to causes light bending against the paw and held for 4s. A positive response was noted if the paw was sharply withdrawn. Flinching immediately upon removal of the hair was also considered a positive response. The 2-g filament was selected as the upper limit cut-off for testing. If there was no response at 2-g filament, animals were assigned this cut-off value. The pattern of positive and negative withdrawal responses was converted to 50% threshold according to the formula: 50% PWT = 10 log (X) + κδ. X = value (in log unit) of the final von Frey hair used; κ is correction factors based on the pattern of responses from the calibration table; δ = mean difference in log units between stimuli (here, 0.224)."}},
  "data": [
    {"smiles": "C[C@]12N[C@H](Cc3ccccc31)c1ccccc12", "note": "[MK801]", "values": [
      {"measurement": "Analgesic tolerance when used chronically", "setting": "neuropathic pain", "value": "cause obvious analgesic tolerance"},
      {"measurement": "Spatial memory in the Morris water maze task", "setting": "spatial memory", "value": "caused significantly impaired spatial memory"}
    ]},
    {"smiles": "O=C(OC1CCCCC1)c1ccc(NCc2cc(Cl)cc(Cl)c2O)cc1O", "note": "[ZL006-05A]", "values": [
      {"measurement": "Analgesic tolerance, mechanical hyperalgesia", "setting": "[1]", "value": "caused substantial analgesic tolerance"},
      {"measurement": "Effect on α2-containing GABAAR (in words)", "setting": "α2β3γ2 GABAARs; α2β3γ2", "value": "without ability to target α2-containing GABAAR"}
    ]},
    {"smiles": "CC1(C)C2CCC1(C)C(OC(=O)c1ccc(NCc3ccccc3O)cc1O)C2", "note": "(centres unmarked) [ZL006-05B]", "values": [
      {"measurement": "Analgesic tolerance, mechanical hyperalgesia", "setting": "[1]", "value": "caused substantial analgesic tolerance"},
      {"measurement": "PSD-95-nNOS complex level in the SDH", "setting": "PSD-95-nNOS complex", "value": "without ability to target PSD-95-nNOS"},
      {"measurement": "EC50", "setting": "α2β3γ2 GABAARs; α2β3γ2, n = 8", "value": "2.834 ± 0.0033", "unit": "nM"},
      {"measurement": "Emax", "setting": "α2β3γ2 GABAARs; α2β3γ2, n = 8", "value": "104 ± 21.9", "unit": "%"}
    ]},
    {"smiles": "CN1C(=O)CN=C(c2ccccc2)c2cc(Cl)ccc21", "note": "[diazepam]", "values": [
      {"measurement": "Locomotor activity, distance travelled during 5 min", "setting": "locomotor activity", "value": "reduced the locomotor activity of mice in the open-field test"},
      {"measurement": "Emax", "setting": "α1β2γ2 GABAARs", "value": "109 ± 18.5", "unit": "%"},
      {"measurement": "Emax", "setting": "α2β3γ2 GABAARs; α2β3γ2, n = 8", "value": "118 ± 16.4", "unit": "%"},
      {"measurement": "Emax", "setting": "α3β3γ2 GABAARs", "value": "113 ± 8.58", "unit": "%"},
      {"measurement": "Motor coordination, time spent on the accelerating rotarod", "setting": "motor coordination", "value": "shortened the time for rats to fall off an accelerating rotarod significantly"}
    ]},
    {"smiles": "CC(C)C[C@H](CN)CC(=O)O", "note": "[pregabalin]", "values": [
      {"measurement": "Analgesic tolerance, mechanical hyperalgesia, 28 days treatment", "setting": "[2]", "value": "caused a severe analgesic tolerance"}
    ]}
  ]
}
